Measured values from ChEMBL document CHEMBL6071157, “Improved N-phenylpyrrolamide inhibitors of DNA gyrase as antibacterial agents for high-priority bacterial strains” (Eur J Med Chem, 2024).
Values after ≈ are worked out from the molar mass of the structure shown.

Assays:
[1] = target: T1, DNA topoisomerase 2-alpha (Homo sapiens, UniProt P11388); assay: Inhibition of human DNA topoisomerase 2-alpha using linear pBR322 as substrate assessed as conversion of NADH to NAD+ by measuring residual activity at 100 uM preincubated for 10 to 15 mins in presence of pyruvate kinase/lactate dehydrogenase mix followed by ATP addition and measured after 30 mins by ATPase assay relative to control; settings: time 40-55 min
Staphylococcus aureus [2] = assay: Antibacterial against vancomycin-intermediate Staphylococcus aureus ATCC 700699 assessed as inhibition of bacterial growth by broth dilution method; assay type: functional
[3] = Metabolic stability in human liver microsomes assessed as intrinsic clearance at 1 uM preincubated for 10 mins followed by NADPH addition and measured after 5 to 60 mins by LC-MS/MS analysis; assay type: ADME, Microsome; settings: time 15-70 min, read-out: CLH
Acinetobacter baumannii = assay: Antibacterial activity against Acinetobacter baumannii ATCC 17978 assessed as inhibition of bacterial growth by broth microdilution method; assay type: functional
Enterococcus faecalis = assay: Antibacterial activity against Enterococcus faecalis ATCC 29212 assessed as inhibition of bacterial growth by broth microdilution method; assay type: functional
Escherichia coli [4] = assay: Antibacterial activity against Escherichia coli ATCC 25922 assessed as inhibition of bacterial growth by broth microdilution method; assay type: functional
Klebsiella pneumoniae = assay: Antibacterial activity against Klebsiella pneumoniae ATCC 10031 assessed as inhibition of bacterial growth by broth microdilution method; assay type: functional
Pseudomonas aeruginosa = assay: Antibacterial activity against Pseudomonas aeruginosa ATCC 27853 assessed as inhibition of bacterial growth by broth microdilution metho; assay type: functional
Enterococcus faecium = assay: Antibacterial activity against vancomycin-resistant Enterococcus faecium ATCC 700221 assessed as inhibition of bacterial growth by broth microdilution method; assay type: functional
[5] = Metabolic stability in mouse liver microsomes assessed as intrinsic clearance at 1 uM preincubated for 10 mins followed by NADPH addition and measured after 5 to 60 mins by LC-MS/MS analysis; assay type: ADME, Microsome; settings: time 15-70 min, read-out: CLH
MCF7 = assay: Cytotoxicity against human MCF7 cells assessed as cell viability at 50 uM incubated for 72 hrs by CellTiter 96 aqueous one solution reagent based MTS assay relative to control; assay type: functional; settings: read-out: Activity
Enterobacter cloacae = assay: Antibacterial activity against Enterobacter cloacae subsp. cloacae ATCC 13047 assessed as inhibition of bacterial growth by broth microdilution method; assay type: functional
Staphylococcus aureus [6] = assay: Antibacterial against methicillin resistant Staphylococcus aureus ATCC 43300 assessed as inhibition of bacterial growth by broth microdilution method; assay type: functional; settings: time 24 hrs
[7] = Metabolic stability in mouse liver microsomes assessed as half life at 1 uM preincubated for 10 mins followed by NADPH addition and measured after 5 to 60 mins by LC-MS/MS analysis; assay type: ADME, Microsome; settings: time 15-70 min
Escherichia coli [8] = assay: Inhibition of Escherichia coli DNA topoisomerase-IV assessed as residual activity at 1 uM by relaxation plate assay relative to control
Staphylococcus aureus [9] = assay: Antibacterial activity against Staphylococcus aureus ATCC 29213 assessed as inhibition of bacterial growth by broth microdilution method; assay type: functional
DNA gyrase [10] = target: DNA gyrase (Escherichia coli, UniProt P0AES4+P0AES6); assay: Inhibition of Escherichia coli DNA gyrase by supercoiling plate assay; assay type: protein-complex assay
[11] = target: T1, DNA topoisomerase 2-alpha; assay: Inhibition of human DNA topoisomerase 2-alpha using linear pBR322 as substrate assessed as conversion of NADH to NAD+ preincubated for 10 to 15 mins in presence of pyruvate kinase/lactate dehydrogenase mix followed by ATP addition and measured after 30 mins by ATPase assay
[12] = Inhibition of Escherichia coli DNA topoisomerase-IV relaxation plate assay
Escherichia coli [13] = assay: Inhibition of Escherichia coli DNA topoisomerase-IV assessed as residual activity at 10 uM by relaxation plate assay relative to control
DNA gyrase [14] = target: DNA gyrase (Staphylococcus aureus, UniProt P0A0K8+P20831); assay: Inhibition of Staphylococcus aureus DNA gyrase by supercoiling plate assay; assay type: protein-complex assay
[15] = Metabolic stability in human liver microsomes assessed as half life at 1 uM preincubated for 10 mins followed by NADPH addition and measured after 5 to 60 mins by LC-MS/MS analysis; assay type: ADME, Microsome; settings: time 15-70 min

T1 sequence (P11388 whole entry): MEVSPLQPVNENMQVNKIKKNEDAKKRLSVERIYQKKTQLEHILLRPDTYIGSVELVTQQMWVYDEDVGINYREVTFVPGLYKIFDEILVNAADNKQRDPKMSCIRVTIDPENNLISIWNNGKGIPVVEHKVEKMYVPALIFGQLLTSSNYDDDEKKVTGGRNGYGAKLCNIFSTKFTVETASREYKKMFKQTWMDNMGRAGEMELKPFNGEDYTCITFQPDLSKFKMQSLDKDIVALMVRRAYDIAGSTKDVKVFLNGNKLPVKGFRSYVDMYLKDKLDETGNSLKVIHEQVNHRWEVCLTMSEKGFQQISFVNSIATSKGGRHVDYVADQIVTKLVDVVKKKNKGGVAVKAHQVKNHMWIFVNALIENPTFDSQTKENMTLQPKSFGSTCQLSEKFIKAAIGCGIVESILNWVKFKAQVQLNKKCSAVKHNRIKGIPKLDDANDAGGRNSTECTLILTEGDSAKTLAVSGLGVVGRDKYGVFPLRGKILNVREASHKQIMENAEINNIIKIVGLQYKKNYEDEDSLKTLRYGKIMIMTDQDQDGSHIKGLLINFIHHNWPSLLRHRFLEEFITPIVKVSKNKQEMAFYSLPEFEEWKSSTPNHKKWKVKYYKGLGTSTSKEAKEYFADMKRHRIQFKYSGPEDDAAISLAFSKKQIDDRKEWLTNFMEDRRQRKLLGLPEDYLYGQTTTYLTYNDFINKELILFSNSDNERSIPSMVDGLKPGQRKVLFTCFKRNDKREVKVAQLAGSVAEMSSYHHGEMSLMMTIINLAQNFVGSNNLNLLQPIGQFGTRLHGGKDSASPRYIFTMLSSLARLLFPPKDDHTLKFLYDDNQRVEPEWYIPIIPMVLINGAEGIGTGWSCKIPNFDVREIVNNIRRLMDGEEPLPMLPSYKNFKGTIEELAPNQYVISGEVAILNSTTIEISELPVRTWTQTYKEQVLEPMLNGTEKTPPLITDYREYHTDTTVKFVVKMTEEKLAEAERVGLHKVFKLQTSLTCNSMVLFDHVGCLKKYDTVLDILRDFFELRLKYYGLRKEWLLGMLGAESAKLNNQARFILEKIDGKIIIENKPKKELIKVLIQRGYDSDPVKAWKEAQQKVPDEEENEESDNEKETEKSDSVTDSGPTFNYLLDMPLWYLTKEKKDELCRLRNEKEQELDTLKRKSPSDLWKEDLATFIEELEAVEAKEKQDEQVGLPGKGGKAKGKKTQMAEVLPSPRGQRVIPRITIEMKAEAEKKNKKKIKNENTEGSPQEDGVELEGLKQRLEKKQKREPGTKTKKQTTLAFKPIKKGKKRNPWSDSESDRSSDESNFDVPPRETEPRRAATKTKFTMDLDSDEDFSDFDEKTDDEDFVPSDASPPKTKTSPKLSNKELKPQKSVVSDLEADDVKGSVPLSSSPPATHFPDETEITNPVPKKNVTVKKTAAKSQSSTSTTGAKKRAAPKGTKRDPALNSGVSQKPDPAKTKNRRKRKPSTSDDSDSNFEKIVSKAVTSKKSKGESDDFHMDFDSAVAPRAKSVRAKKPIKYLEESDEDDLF
Chain of DNA gyrase (Staphylococcus aureus, UniProt P0A0K8+P20831) (P0A0K8 whole entry): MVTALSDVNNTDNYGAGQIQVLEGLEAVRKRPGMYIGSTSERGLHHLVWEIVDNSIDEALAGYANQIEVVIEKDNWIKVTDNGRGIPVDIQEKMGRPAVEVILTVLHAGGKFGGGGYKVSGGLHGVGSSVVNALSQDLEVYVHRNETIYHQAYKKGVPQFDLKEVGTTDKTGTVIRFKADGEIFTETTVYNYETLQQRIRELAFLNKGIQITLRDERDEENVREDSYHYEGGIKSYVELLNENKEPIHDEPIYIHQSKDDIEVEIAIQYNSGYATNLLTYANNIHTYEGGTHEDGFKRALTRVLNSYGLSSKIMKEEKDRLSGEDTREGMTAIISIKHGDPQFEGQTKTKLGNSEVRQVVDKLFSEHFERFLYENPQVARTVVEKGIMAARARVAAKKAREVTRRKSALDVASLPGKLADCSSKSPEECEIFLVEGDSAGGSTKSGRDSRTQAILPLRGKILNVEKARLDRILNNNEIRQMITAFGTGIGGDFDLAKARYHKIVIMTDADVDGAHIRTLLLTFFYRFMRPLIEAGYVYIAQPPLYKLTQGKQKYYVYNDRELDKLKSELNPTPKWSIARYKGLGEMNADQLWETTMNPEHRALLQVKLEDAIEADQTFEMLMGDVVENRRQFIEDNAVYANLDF
Chain of DNA gyrase (Staphylococcus aureus, UniProt P0A0K8+P20831) (P20831 whole entry): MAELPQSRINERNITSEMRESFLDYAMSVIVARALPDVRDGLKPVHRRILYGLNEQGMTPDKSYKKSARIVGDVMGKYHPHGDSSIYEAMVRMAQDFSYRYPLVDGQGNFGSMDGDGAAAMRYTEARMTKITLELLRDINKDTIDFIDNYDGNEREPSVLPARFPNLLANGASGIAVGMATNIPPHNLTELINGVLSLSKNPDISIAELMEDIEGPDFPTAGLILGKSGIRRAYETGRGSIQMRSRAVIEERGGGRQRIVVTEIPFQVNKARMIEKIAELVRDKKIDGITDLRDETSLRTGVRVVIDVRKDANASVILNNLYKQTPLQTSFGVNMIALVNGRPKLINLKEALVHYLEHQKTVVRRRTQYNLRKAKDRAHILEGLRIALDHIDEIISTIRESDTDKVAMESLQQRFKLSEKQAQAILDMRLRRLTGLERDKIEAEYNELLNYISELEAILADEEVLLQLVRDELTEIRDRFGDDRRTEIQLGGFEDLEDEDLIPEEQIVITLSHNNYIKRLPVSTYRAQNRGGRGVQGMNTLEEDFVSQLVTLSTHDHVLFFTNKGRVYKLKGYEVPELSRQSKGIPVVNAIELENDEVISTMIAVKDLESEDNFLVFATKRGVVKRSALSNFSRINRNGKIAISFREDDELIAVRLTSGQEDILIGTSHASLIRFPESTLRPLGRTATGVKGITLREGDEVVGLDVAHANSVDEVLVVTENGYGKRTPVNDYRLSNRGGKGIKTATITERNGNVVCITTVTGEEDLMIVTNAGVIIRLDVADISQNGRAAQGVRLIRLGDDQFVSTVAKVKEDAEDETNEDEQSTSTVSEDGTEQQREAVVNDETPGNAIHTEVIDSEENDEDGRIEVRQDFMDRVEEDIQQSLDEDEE

Row | Compound | Activity [1] | MIC (Staphylococcus aureus [2]) | microsomal CLint at 1 µM [3] | MIC (Acinetobacter baumannii) | MIC (Enterococcus faecalis) | MIC (Escherichia coli [4]) | MIC (Klebsiella pneumoniae) | MIC (Pseudomonas aeruginosa) | MIC (Enterococcus faecium) | microsomal CLint at 1 µM [5] | viability at 50 µM (MCF7) | MIC (Enterobacter cloacae) | MIC (Staphylococcus aureus [6]) | half-life at 1 µM [7] | MIC (Staphylococcus aureus [9]) | IC50 (DNA gyrase [10]) | IC50 [12] | Activity (Escherichia coli [13]) | IC50 (DNA gyrase [14]) | half-life at 1 µM [15] | further results
1 | Cc1[nH]c(C(=O)Nc2ccc(-c3noc(=O)[nH]3)cc2N2CCN(C(=O)OC(C)(C)C)CC2)c(Cl)c1Cl | 95% | < 0.031 µg/mL | 18.2 µL/min/mg | > 64 µg/mL | < 0.031 µg/mL | > 64 µg/mL | > 64 µg/mL | > 64 µg/mL | 0.25 µg/mL (≈ 0.465 µM) | < 9.6 µL/min/mg | 78% | > 64 µg/mL | > 64 µg/mL | > 2.42 h | > 64 µg/mL | 0.0137 µM |  |  |  |  | Activity (Escherichia coli [8]): 71%
2 | Cc1[nH]c(C(=O)Nc2ccc(-c3noc(=O)[nH]3)cc2N2CCC(N)CC2)c(Cl)c1Cl.Cl |  | 16 µg/mL |  | > 64 µg/mL | 32 µg/mL | > 64 µg/mL | 64 µg/mL | > 64 µg/mL | 32 µg/mL |  |  | > 64 µg/mL | 32 µg/mL |  | 64 µg/mL | 0.000253 µM | 0.187 µM |  |  |  | IC50 [11]: 26.2 µM
3 | Cc1[nH]c(C(=O)Nc2ccc(C(=O)NS(C)(=O)=O)cc2N2CCOCC2)c(Cl)c1Cl | 94% |  |  |  |  |  |  |  |  |  |  |  |  |  |  | 0.243 µM |  | 37% |  |  | 
4 | Cc1[nH]c(C(=O)Nc2ccc(-c3noc(=O)[nH]3)cc2N2CCCC(N)C2)c(Cl)c1Cl.Cl (stereo not drawn) | 91% | > 64 µg/mL |  | > 64 µg/mL | 8 µg/mL | > 64 µg/mL | 16 µg/mL | > 64 µg/mL | 8 µg/mL |  | 95% | > 64 µg/mL | > 64 µg/mL |  | > 64 µg/mL | 0.00249 µM | 0.145 µM |  | 0.0558 µM |  | 
5 | Cc1[nH]c(C(=O)Nc2ccc(-c3noc(=O)[nH]3)cc2N2CCCC2)c(Cl)c1Cl | 99% | < 0.031 µg/mL | 17.6 µL/min/mg | > 64 µg/mL | < 0.031 µg/mL | > 64 µg/mL | > 64 µg/mL | > 64 µg/mL | 0.063 µg/mL (≈ 0.149 µM) | 11 µL/min/mg | 119% | > 64 µg/mL | 0.5 µg/mL (≈ 1.18 µM) | 2.1 h | > 64 µg/mL | 0.0126 µM | 2.41 µM |  |  | 1.31 h | 
6 | Cc1[nH]c(C(=O)Nc2ccc(-c3noc(=O)[nH]3)cc2N2CCN(c3ccccc3)CC2)c(Cl)c1Cl | 98% | 2 µg/mL (≈ 3.9 µM) | < 9.6 µL/min/mg | > 64 µg/mL | 0.125 µg/mL (≈ 0.243 µM) | > 64 µg/mL | > 64 µg/mL | > 64 µg/mL | 4 µg/mL (≈ 7.79 µM) | < 9.6 µL/min/mg | 68% | > 64 µg/mL | 0.063 µg/mL (≈ 0.123 µM) | > 2.42 h | 4 µg/mL (≈ 7.79 µM) | 0.109 µM |  | 71% |  | > 2.42 h | 
7 | Cc1[nH]c(C(=O)Nc2ccc(-n3nn[nH]c3=O)cc2N2Cc3ccccc3C2)c(Cl)c1Cl | 97% | > 64 µg/mL | 17.3 µL/min/mg | > 64 µg/mL | 0.25 µg/mL (≈ 0.532 µM) | > 64 µg/mL | > 64 µg/mL | > 64 µg/mL | 0.5 µg/mL (≈ 1.06 µM) | < 9.6 µL/min/mg | 89% | > 64 µg/mL | > 64 µg/mL | > 2.42 h | 16 µg/mL (≈ 34 µM) | 0.111 µM |  | 105% |  | 1.33 h | 
8 | Cc1[nH]c(C(=O)Nc2ccc(-c3noc(=O)[nH]3)cc2NC2CCNCC2)c(Cl)c1Cl.Cl | 101% | > 64 µg/mL |  | > 64 µg/mL | > 64 µg/mL | > 64 µg/mL | > 64 µg/mL | > 64 µg/mL | > 64 µg/mL |  |  | > 64 µg/mL | > 64 µg/mL |  | > 64 µg/mL | 0.00966 µM | 1.18 µM |  | 0.249 µM |  | 
9 | Cc1[nH]c(C(=O)Nc2ccc(-n3nn[nH]c3=O)cc2N2CCC(N)CC2)c(Cl)c1Cl.Cl | 103% | > 32 µg/mL |  | > 32 µg/mL | > 32 µg/mL | > 32 µg/mL | > 32 µg/mL | > 32 µg/mL | > 32 µg/mL |  |  | > 32 µg/mL | > 32 µg/mL |  | > 32 µg/mL | 0.00396 µM | 11.5 µM |  | 0.216 µM |  | 
10 | Cc1[nH]c(C(=O)Nc2ccc(-n3nn[nH]c3=O)cc2N2CC[C@H](NC(=O)OC(C)(C)C)C2)c(Cl)c1Cl | 95% |  |  |  |  |  |  |  |  |  |  |  |  |  |  | 0.212 µM |  | 72% |  |  | 
